# Tests used:
# [1] = system: murine donor heart; assay: murine donor heart, 16 h of cold storage followed by 24 h of heterotopic transplantation; type: in vivo; settings: 50 μM in storage, n=8
# Description: FIG. 4. […] Donor heart was isolated and store with or without canrenone for 16 hr, then the donor hearts were heterotopic transplanted to receipt cervical region. max dp/dt (contraction) and min dp/dt (relaxation) were calculated by average the max/min dp/dt for 1 minute period after 24 hr of transplantation using Millar Catheter. *P<0.05, n=8.
# [2] = system: murine donor heart; assay: murine donor heart, 16 h of cold storage followed by ex vivo perfusion; settings: 50 μM, 60 minutes of reperfusion, N=8
# Text: FIG. 2. […] N=8 at each time point.
# [3] = system: pig donor heart; assay: pig donor heart, 10 h of cold storage followed by ex vivo perfusion; settings: 50 μM in HTK; 10 h of cold storage on ice, 30 minutes of reperfusion ex vivo; N=4
# Description: FIG. 5. […] Pig hearts were perfused with 1 L HTK solution after cross clamp. Addition 2 L of HTK with or without canrenone were perfused and stored for 10 hr on ice. Pig hearts were perfused in ex vivo system with blood and Krebs buffer (1:4, hemoglobin concentration: […]). max dp/dt (contraction) and min dp/dt (relaxation) were calculated by average the max/min dp/dt for 10 minute period after 30 minutes of reperfusion using Millar Catheter. *P<0.05, **P<0.01. N=4.
# [4] = system: heart failure; settings: cited from earlier work
# [5] = system: cardiomyocytes; settings: IR conditions; cited from earlier work
# [6] = system: heart, kidneys, lung and liver; settings: cited from earlier work
# [7] = system: mineralocorticoid receptor (MR); settings: cited from earlier work
# [8] = system: Irg1; assay: Irg1 expression in cold-stored donor heart; settings: cold storage of donor heart, VPA treatment
# Text: (§1) FIG. 7, panels A-C. […] Panels B and C.
# [9] = large epidemiologic studies; cited from earlier work
# [10] = system: heart; settings: rats; cited from earlier work
# [11] = system: donor heart; assay: donor heart function after 16 hr of cold storage followed by reperfusion (VPA)
# Text: as §1
# [12] = system: ischemia reperfusion (IR) rats; settings: cited from earlier work; for heart function: ischemia reperfusion (IR) rats
compound,measurement,setting,value
"C[C@]12CCC(=O)C=C1C=C[C@@H]1[C@@H]2CC[C@@]2(C)[C@H]1CC[C@@]21CCC(=O)O1 [Canrenone, canrenone]","donor heart function, max dp/dt (contraction) and min dp/dt (relaxation)",[1],improve murine donor heart function
same,"donor heart function, max dp/dt (contraction) and min dp/dt (relaxation)",[2],improves murine donor heart function
same,"donor heart function, max dp/dt (contraction) and min dp/dt (relaxation)",[3],improve pig donor heart function
Cc1sc2c(c1C)C(c1ccc(Cl)cc1)=N[C@@H](CC(=O)OC(C)(C)C)c1nnc(C)n1-2 [JQ-1],heart failure,[4],effectively halt heart failure
same,protection of cardiomyocytes,[5],may protect cardiomyocytes
"CCCC(CCC)C(=O)O [VPA, valproic acid]",fibrosis,[6],reduce fibrosis
same,acetylation of the mineralocorticoid receptor (MR),[7],affect the acetylation of the mineralocorticoid receptor
same,Irg1 expression,[8],further stimulates Irg1 upregulation
same,incidence of stroke and AMI,[9],reduce the incidence of stroke and AMI
same,protection of the heart against AMI injury,[10],protects the heart against AMI injury
same,effect of VPA on donor heart function with Irg1 deletion,"[11]; Irg1 deletion, 16 hr of cold storage followed by reperfusion",Irg1 deletion reduce the protective effect
same,donor heart ischemic tolerance,[11]; cold storage of donor heart,improve donor heart ischemic tolerance
CC(=O)O [acetate],heart function,[12],improve heart function
CCCCCCCC(=O)O [octanoate],heart functional recovery,[12]; 160 mg/kg i.p. injected once at the time of reperfusion,significant heart functional recovery
same,heart function,[12],improve heart function
